Laboratory results reported in ChEMBL document CHEMBL4196227, “Potential of PDE10A Inhibitors as Treatment for Schizophrenia and Other Neurological Disorders” (ACS Med Chem Lett, 2018).

Columns and labels:
[1] = Clearance in human liver microsomes at 0.5 uM preincubated for 5 mins followed by NADPH addition measured after 30 mins by MSMS analysis; type: ADME, microsome; settings: read-out: CLH
[2] = biological target: cAMP and cAMP-inhibited cGMP 3',5'-cyclic phosphodiesterase 10A (Homo sapiens, UniProt Q9Y233); assay: Inhibition of recombinant PDE10A (unknown origin) using cAMP/cGMP as substrate incubated for 60 mins by HTRF assay
[3] = Clearance in rat liver microsomes at 0.5 uM preincubated for 5 mins followed by NADPH addition measured after 30 mins by MSMS analysis; type: ADME, microsome; settings: read-out: CLH

Chain of cAMP and cAMP-inhibited cGMP 3',5'-cyclic phosphodiesterase 10A (Q9Y233 whole entry): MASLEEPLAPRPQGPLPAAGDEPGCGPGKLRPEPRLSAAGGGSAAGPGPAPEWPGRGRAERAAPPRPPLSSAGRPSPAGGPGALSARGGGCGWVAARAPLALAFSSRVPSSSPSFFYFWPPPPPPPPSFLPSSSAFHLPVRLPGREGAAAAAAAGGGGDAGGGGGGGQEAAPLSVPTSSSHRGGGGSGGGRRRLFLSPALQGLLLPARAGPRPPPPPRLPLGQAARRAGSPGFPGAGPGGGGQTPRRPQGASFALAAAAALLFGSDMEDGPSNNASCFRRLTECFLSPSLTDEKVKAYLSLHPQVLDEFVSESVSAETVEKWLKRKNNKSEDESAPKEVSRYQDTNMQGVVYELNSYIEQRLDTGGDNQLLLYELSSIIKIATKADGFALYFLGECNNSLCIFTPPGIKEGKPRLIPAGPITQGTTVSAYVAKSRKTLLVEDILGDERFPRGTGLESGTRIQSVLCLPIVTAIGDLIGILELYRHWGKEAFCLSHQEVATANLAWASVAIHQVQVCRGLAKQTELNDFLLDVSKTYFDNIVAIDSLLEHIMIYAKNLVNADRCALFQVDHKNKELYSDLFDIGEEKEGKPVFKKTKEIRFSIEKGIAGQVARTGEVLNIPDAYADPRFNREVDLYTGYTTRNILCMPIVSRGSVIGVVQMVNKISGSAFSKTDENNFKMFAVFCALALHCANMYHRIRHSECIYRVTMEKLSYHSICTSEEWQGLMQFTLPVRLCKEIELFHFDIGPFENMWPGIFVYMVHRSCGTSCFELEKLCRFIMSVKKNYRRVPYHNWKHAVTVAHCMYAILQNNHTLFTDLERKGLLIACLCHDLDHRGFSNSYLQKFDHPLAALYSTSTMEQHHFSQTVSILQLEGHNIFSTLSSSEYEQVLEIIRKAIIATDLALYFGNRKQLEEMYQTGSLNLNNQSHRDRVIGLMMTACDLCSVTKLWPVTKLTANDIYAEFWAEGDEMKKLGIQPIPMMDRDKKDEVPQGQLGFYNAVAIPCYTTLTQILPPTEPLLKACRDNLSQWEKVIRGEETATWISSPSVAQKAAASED

Row | SMILES | microsomal CLint at 0.5 µM [1] | IC50 [2] | microsomal CLint at 0.5 µM [3]
1 | Cn1cc(-c2ccncc2)c(-c2ccc(C#Cc3ccccn3)cc2)n1 | < 100 µL/min/mg | < 100 nM | < 100 µL/min/mg
2 | Cn1cc(-c2ccncc2)c(-c2ccc(C#Cc3nccn3C)cc2)n1 | < 100 µL/min/mg | < 100 nM | < 100 µL/min/mg
3 | Cn1cc(-c2ccncc2)c(-c2ccc(C#Cc3ccc4ccccc4n3)cc2)n1 | < 100 µL/min/mg | < 100 nM | < 100 µL/min/mg
4 | COc1cc(-c2nn(C)cc2-c2ccncc2)ccc1C#Cc1cccc(C)n1 | < 100 µL/min/mg | < 100 nM | 100 to 200 µL/min/mg

Next, values leading:

Row | microsomal CLint at 0.5 µM [1] | IC50 [2] | microsomal CLint at 0.5 µM [3] | SMILES
5 | < 100 µL/min/mg | 200 to 500 nM | < 100 µL/min/mg | Cc1cccc(C#Cc2ccc(-c3nn(C)cc3-c3cn[nH]c3)cc2)n1
6 | < 100 µL/min/mg | 100 to 200 nM | < 100 µL/min/mg | Cn1cc(-c2ccncc2)c(-c2ccc(C#Cc3nccs3)cc2)n1
